Test results reported in PubChem BioAssay (NCI).
Where “and” joins values, the source holds several entries; their conditions need not be identical. Equal entries are not always repeated.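 Briefly, cells in 96-well plates were exposed to five compound concentrations for 48 h, and endpoints were estimated by linear interpolation. GI50 = concentration required for 50% inhibition of growth. TGI: concentration producing complete growth inhibition.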

Assays:
Experiment in all cases: NCI anticancer screen, dose series, 48 h
M14 melanoma = tested on: M14 melanoma
786-0 renal = tested on: 786-0 renal
SF-268 CNS = tested on: SF-268 CNS
MALME-3M melanoma = tested on: MALME-3M melanoma
SK-MEL-5 melanoma = tested on: SK-MEL-5 melanoma
SNB-19 CNS = tested on: SNB-19 CNS
IGROV1 ovarian = tested on: IGROV1 ovarian
SR leukemia = tested on: SR leukemia
UACC-62 melanoma = tested on: UACC-62 melanoma
SK-MEL-2 melanoma = tested on: SK-MEL-2 melanoma
TK-10 renal = tested on: TK-10 renal
CAKI-1 renal = tested on: CAKI-1 renal
MDA-MB-435 = tested on: MDA-MB-435

Structure (SMILES)	TGI (M14 melanoma) [µM]	TGI (786-0 renal) [µM]	TGI (SF-268 CNS) [µM]	TGI (MALME-3M melanoma) [µM]	TGI (SK-MEL-5 melanoma) [µM]	TGI (SNB-19 CNS)	TGI (IGROV1 ovarian)	TGI (SR leukemia) [µM]	TGI (UACC-62 melanoma)	TGI (SK-MEL-2 melanoma)	TGI (TK-10 renal) [µM]	TGI (CAKI-1 renal) [µM]	TGI (MDA-MB-435) [µM]	GI50 (CAKI-1 renal) [µM]	GI50 (SF-268 CNS) [µM]	GI50 (SNB-19 CNS) [µM]	GI50 (IGROV1 ovarian) [µM]	GI50 (UACC-62 melanoma) [µM]	GI50 (SK-MEL-2 melanoma) [µM]
COc1cccc2c1C(=O)c1c(O)c3c(c(O)c1C2=O)C[C@@](O)(C(=O)CO)C[C@@H]3OC1CC(N)C(OC)C(C)O1 (some centres undefined)	0.996	18.2	1.97	0.283	0.189	> 15.8 µM	16.4 µM	0.364	0.227 µM	0.407 µM	36.6								
CC#C[P+](c1ccccc1)(c1ccccc1)c1ccccc1	5.78	10.7	8.44	22.4	11.9	15 µM	26.1 µM	14.3	14.8 µM	5.75 µM	15.7	11.3							
COc1ccc(-c2c(C#N)c(O)n(NS(=O)(=O)c3ccc(C)cc3)c(=O)c2C#N)cc1	> 100	> 100	> 100	> 100	> 100	> 100 µM	> 100 µM		> 100 µM	> 100 µM	> 100	> 100	> 100						
CCOC(=O)c1ccc(NC(=O)O/N=C(/Cl)CCl)cc1		> 100	> 100	> 100	> 100	> 100 µM	> 100 µM	> 100		> 100 µM	> 100	> 100							
N#CC1(C#N)C2CCCCC23OC(=N)C1(C#N)C(c1ccccc1)O3 (centres undefined)	28.7	33.7	18.1	34.5	33	> 100 µM	37.2 µM		49.4 µM	43 µM	37.6	24.5	83.6						
O=C(/C=C/C=C/c1ccccc1)c1ccc2c(c1)CCCC2	> 100	> 100	42.6		> 100	> 100 µM	> 100 µM	87.9	> 100 µM	> 100 µM	> 100	> 100	40.8						
C[C@@H]1C[C@](O)([C@@H](C)Cl)C(=O)O[C@@H]2CCN3CC=C(COC(=O)[C@]1(C)O)[C@H]23	> 100	> 100	> 100		> 100	> 10 µM	> 100 µM	> 100	> 100 µM	> 100 µM	> 100	> 100	> 100						
CC(C)=CCc1c(O)ccc2ccc(=O)oc12			> 100	> 100	23.5	> 100 µM	> 100 µM		> 100 µM	> 100 µM		> 100							
CSc1nncc2[nH]c(C)nc12	> 100	> 100		> 100	> 100		> 100 µM		> 100 µM	> 100 µM	> 100	> 100	> 100						
CC(/C=N\NC(=S)N1CCCCC1)=N/NC(=S)N1CCCCC1	5.51	13.2	14.6	14.9	3.86	35.7 µM	8.3 µM		5.94 µM	6.36 µM	11.8	10.7	17.5						
Cc1cc(OCc2nnc3n2N=C(c2cc(F)c(Cl)cc2Cl)/C(=C/c2ccc(Cl)cc2)S3)ccc1Cl	65.5	> 100	51.4		36.5		52.8 µM	30.4		> 100 µM	> 100	49.9	> 100						
Cc1c(O)c(C)c2c(C)cn(C(=O)C(C)(C)C)c2c1C	30.5	36.3	> 100		27.8	65.5 µM	42.2 µM		28.5 µM	43.4 µM	36.4		30.3						
Cc1ccsc1/C=N/Nc1ccc2ccccc2n1	> 100	> 100	> 100		13.2	> 100 µM	79.3 µM		> 100 µM	> 100 µM	66.2	> 100	> 100						
CCOP(=O)(O)C(C)(C)NC	> 100	> 100	> 100	> 100	> 100	> 100 µM	> 100 µM		> 100 µM	> 100 µM	> 100		> 100						
CN1C(=O)C(CC=O)(C(C)(C)C)c2ccccc21 (centres undefined)	> 100	> 100	> 100		> 100	> 100 µM		> 100	> 100 µM	> 100 µM		> 100	> 100						
CC12CC(C#N)(C#N)C(C#N)(CO1)C(=N)O2 (centres undefined)	> 100	> 100	> 100	90.8	> 100	> 100 µM	> 100 µM		> 100 µM	> 100 µM	> 100	> 100	> 100						
O=[N+]([O-])c1cc2c(c3nonc13)OCCCCO2	17.9	10.7	27.3	11.9	21.2	34.6 µM	21.2 µM		21.5 µM	29.2 µM	93.7	34.3	17.9						
COc1ccc(C(OC(C)=O)C2C(=C(C#N)C#N)c3ccccc3C2=C(C#N)C#N)cc1 (centres undefined)	> 100	> 100	> 100		> 100		> 100 µM	41		83.8 µM	> 100	> 100	> 100						
O=C(NCCCN(CCCCN(CCCNC(=O)C(F)(F)F)CCCc1ccccc1)CCCc1ccccc1)C(F)(F)F	3.25	2.86	3.3	3.34	3.43	4.17 µM	3.52 µM		3.36 µM		3.79	3.69	3.35						
CCCCn1c(C)c2c(c1C)C(=O)N(CC(O)CN1CCc3ccccc3C1)C2=O (centres undefined)	> 100	> 100	> 100	> 100	> 100	> 100 µM	> 100 µM		> 100 µM	14.8 µM	> 100	> 100	> 100						

Structure (SMILES)	TGI (M14 melanoma) [µM]	TGI (786-0 renal) [µM]	TGI (SF-268 CNS) [µM]	TGI (MALME-3M melanoma) [µM]	TGI (SK-MEL-5 melanoma) [µM]	TGI (SNB-19 CNS)	TGI (IGROV1 ovarian)	TGI (SR leukemia) [µM]	TGI (UACC-62 melanoma)	TGI (SK-MEL-2 melanoma)	TGI (TK-10 renal) [µM]	TGI (CAKI-1 renal) [µM]	TGI (MDA-MB-435) [µM]	GI50 (CAKI-1 renal) [µM]	GI50 (SF-268 CNS) [µM]	GI50 (SNB-19 CNS) [µM]	GI50 (IGROV1 ovarian) [µM]	GI50 (UACC-62 melanoma) [µM]	GI50 (SK-MEL-2 melanoma) [µM]
CCOC(=O)c1cc(C2(O)CCN(CC(C)CC)C2=O)c(-c2cc(C)no2)[nH]1 (centres undefined)	> 100	> 100	> 100	> 100	> 100	> 100 µM	> 100 µM	> 100	> 100 µM	> 100 µM		> 100	> 100						
CC(C)C1=C(Cc2ccccc2)C(=O)O/C1=C\c1cc(Cl)c(O)c(Cl)c1	35.6	32.1	48.2	36.6	34.5	37.1 µM	44.1 µM	66.8	36 µM		55.1	29.9	35.4						
O=C(CCc1cc(O)cc(O)c1)NCCc1cc(O)cc(O)c1	> 100	> 100	> 100		> 100	> 100 µM	> 100 µM	> 100	> 100 µM	> 100 µM	> 100	> 100	> 100						
CCCC(O)C(NC(=O)CCl)C(=O)O (centres undefined)			> 100	> 100	> 100	> 100 µM	> 100 µM		> 100 µM	> 100 µM		> 100							
CC(NNC(=O)CC(=O)N(C(=O)c1ccccc1)c1ccc(Cl)cc1)c1cc2ccccc2oc1=O (centres undefined)	> 10	> 10	> 10	> 10	> 10	> 10 µM	> 10 µM		> 10 µM	> 10 µM	> 10	> 10	> 10						
CN(CCN(C)C(=S)NN)C(=S)NN	> 100	> 100	> 100	> 100	> 100	> 100 µM	> 100 µM	> 100	> 100 µM	> 100 µM		> 100	> 100						
O=P(O)(Cc1ccccc1)c1ccccc1-c1ccccc1	> 100	> 100	> 100	> 100	> 100	> 100 µM	> 100 µM	> 100	> 100 µM	> 100 µM	> 100	> 100							
CC12CCC3C(CCC4=CC(O)CCC43C=O)C1(O)CCC2c1ccc(=O)oc1 (centres undefined)			0.0154		0.0201	0.0224 µM and 0.101 µM	0.0936 µM and 0.141 µM		0.0329 µM and 0.0521 µM	0.0483 µM and 0.0815 µM		0.0627		0.008	0.00153	0.05	0.05	0.00932	0.05
CC[C@]1(Cc2ccc(OC)c(OC)c2)[C@@H]2C[C@@H](C3OCCO3)ON2O[C@H](OC2CCCC2(c2ccccc2)c2ccccc2)[C@@H]1OC(C)=O (some centres undefined)	39.6	41.1	44.1		37.7	36.9 µM	50.1 µM	45.5	> 100 µM	29.5 µM	> 100	82.1	46.9						
COc1cc(/C=C/C(=O)O)ccc1C(=O)OCc1ccccc1			> 100	> 100	> 100	> 100 µM	> 100 µM		> 100 µM	> 100 µM									
CC(C)(C)NC(=O)N1N=C(c2ccccc2)C1c1ccccc1 (centres undefined)	> 100	32	> 100	45.6	47	> 100 µM	> 100 µM		> 100 µM		> 100	59.1							
CCO/C=N/NC(=O)CSc1nc2ccc(I)cc2c(=O)n1Cc1ccccc1	> 100	> 100	> 100		> 100	> 100 µM	> 100 µM	> 100	> 100 µM	65.1 µM	> 100	> 100	> 100						
CC(C)(C)C(=O)OC(N)/C=C/c1ccccc1 (centres undefined)	> 100	> 100		> 100	> 100		> 100 µM	> 100	> 100 µM	> 100 µM		> 100	> 100						
CCOC(=O)NC1CN2CCC1CC2 (centres undefined)	> 100	> 100	> 100	> 100	> 100	> 100 µM	> 100 µM	> 100	> 100 µM	> 100 µM		> 100	> 100						
CCc1nc2ccc(N=NN(C)C)cc2[nH]1	> 100	> 100	> 100	> 100	> 100	> 100 µM	> 100 µM		> 100 µM	> 100 µM	> 100	> 100	> 100						
Cc1cn(CCCCCOC(=O)NC(CCCN=C(N)N)C(=O)O)c(=O)[nH]c1=O (centres undefined)	> 100	> 100	> 100			> 100 µM	> 100 µM	30.8	> 100 µM	> 100 µM	> 100	> 100	47.5						
COc1cc2c(cc1O)C1C(O)C(O)C=C3CCN(C2)C31 (centres undefined)	4.46	11.9	10.5	3.86	2.95	10.1 µM	13.6 µM	5.67	3.97 µM	5.74 µM	11.7	10.1							
CC(C)=C1C(=O)C[C@]2(C)C[C@H]3/C(=C(/C)CCC12)CC[C@@]3(C)O (some centres undefined)	> 50	> 50	> 50		> 50	> 50 µM	> 50 µM	> 50	> 50 µM	> 50 µM	> 50	> 50	> 50						
O=C(O)c1cccnc1	> 100	> 100	> 100	> 100	> 100	> 100 µM	> 100 µM	> 100			> 100	> 100	> 100						
